Data on three molecules can be found in patent US20160011220A1, “Systems and Methods to Quantify Analytes in Keratinized Samples” (PURDUE PHARMA L.P., priority 2012, published 2016).

Data set [1] in a line: Stability of hair levels among individuals on stable doses of opioids, visit 1 vs visit 2 (excluding PRN dose). It counts as in vivo, human. The note with it: hair level at visit 1 vs hair level at visit 2. The text has this: The study includes 2 study visits approximately 60 days apart. The second visit allowable range is between 45 and 75 days after the first visit. Patients submit hair and urine samples at both study visits
The enrolled subjects are current, past or new users of prescribed opioid analgesic regimens in either (i) the past 30 days, (ii) the past 31 to 120 days or were not previously prescribed an opioid regimen. All opioid analgesic regimens are self-reported.
E. Assessment of the Stability of Hair Levels Among Individuals on Stable Doses of Opioids (Excluding PRN Dose)
Also shown in Table 1B and the graphs is data from a sub-population of tested subjects, which excluded patients where the start date of the regimen was within the 90 day window of the enrollment date.

Data set [2] can be described thus: Relationship between prescribed opioid dose and hair levels (excluding PRN dose). It is filed as in vivo, human.
Setting [3] is: excluding patients whose prescription started less than 90 days before enrollment (n = 361).

For the molecule `CN1CC[C@]23c4c5ccc(O)c4O[C@H]2[C@@H](O)C=C[C@H]3[C@H]1C5` [Morphine, morphine], in data set [1] (all interim sample (n = 411)), the “R (correlation coefficient)” value worked out at 0.789 and the R-Squared stood at 0.623. Moreover, in data set [1] (setting [3]), the “R (correlation coefficient)” value was 0.974 and the R-Squared was determined as 0.949.

In the case of `COc1ccc2c3c1O[C@H]1C(=O)CC[C@@]4(O)[C@@H](C2)N(C)CC[C@]314` [Oxycodone, oxycodone], in data set [1] (all interim sample (n = 411)), the “R (correlation coefficient)” value is 0.959 and the R-Squared stood at 0.920. In data set [1] (setting [3]), the “R (correlation coefficient)” value is 0.960 and the R-Squared was determined as 0.922. The “total variation in the hair levels explained by the linear relationship between total daily dose and hair levels (coefficient of determination)” value in data set [2] is listed as “approximately 55%”.

As for `COc1ccc2c3c1O[C@H]1C(=O)CC[C@H]4[C@@H](C2)N(C)CC[C@]314` [Hydrocodone, hydrocodone], in data set [1] (all interim sample (n = 411)), the “R (correlation coefficient)” value is 0.880 and the R-Squared is recorded as 0.775. In addition, in data set [1] (setting [3]), the “R (correlation coefficient)” value was 0.883 and the R-Squared is 0.781.
